From patent EP1242382B1, “TRICYCLIC PROTEIN KINASE INHIBITORS” (Wyeth, priority 1999, dated 2001) come the findings set out here.

The subject of assay [1] is A431. Description: Inhibition of cancer cell growth as measured by cell number (Sulforhodamine B). It is filed as cell-based. The following applies: Homo sapiens, A-431; 48 hours exposure. The protocol: (§1) Human tumor cell lines are plated in 96-well plates (250 µl/well, 1-6 x 10^4 cells/ml) in RPMI 1640 medium, containing 5% FBS (Fetal Bovine Serum). Twenty four hours after plating, test compounds are added at various concentrations. After 48 hours exposure to test compounds, cells are fixed with trichloroacetic acid, and stained with Sulforhodamine B. After washing with trichloroacetic acid, bound dye is solubilized in 10 mM Tris base and optical density is determined using plate reader. Under conditions of the assay the optical density is proportional to the number of cells in the well. […] The test procedure is described in detail by Philip Skehan et. al, J. Natl. Canc. Inst., 82, 1107-1112 (1990). […] Information about some of the cell lines used in these test procedures is available from the American Type Tissue Collection: Cell Lines and Hybridomas, 1994 Reference Guide, 8th Edition.

The subject of assay [2] is MDA-MB-435. The description is as above. In kind it is cell-based. To be noted: Homo sapiens, 48 hours exposure. The protocol: as §1
For assay [3], the system named is SK-BR3. Described as above. In kind it is cell-based. To be noted: Homo sapiens, SK-BR-3; 48 hours exposure. The protocol: as §1
The subject of assay [4] is SW620. The assay is described as above. In kind it is cell-based. To be noted: Homo sapiens, SW-620; 48 hours exposure. The protocol:
as §1

The target in assay [5] is T1, p60^c-src (Src) (Homo sapiens, UniProt P12931).
T1 construct: purchased Upstate Biotechnologies
Briefly: Src kinase test procedure (Elisa format). It is filed as biochemical. The protocol: Inhibitors of p60^c-src (partially purified preparation purchased from Upstate Biotechnologies) tyrosine kinase activity are analyzed in an Elisa format. […] HRP-conjugated anti-phosphotyrosine is used to detect phosphorylated peptide via a color reaction. Conditions recommended by the manufacturer are employed.
Reaction conditions: Five microliter aliquots of each compound prepared fresh at the time of the assay are added as a solution in 10mM HEPES pH 7.5, 10% DMSO to the reaction well. Thirty-five microliters of reaction mix containing Src, buffer and peptide/bovine serum albumin mix are added to the compound wells and incubated at 30°C for 10 minutes (reaction buffer: 50mM TrisHCl pH 7.5, 10mM MgCl2, 0.1mM EGTA, 0.5mM Na3VO4). The reaction is started by addition of 10 microliters of ATP, incubated at 30°C for 1 hour, and stopped by addition of 20 microliters of 0.5M EDTA. The reaction mixture with the phosphorylated peptide is then transferred to a streptavidin-coated microtiter plate (provided in the kit) and allowed to bind for 20 minutes. Unbound peptide and reaction mixture is decanted and the plate is washed with PBS six times. Horseradish peroxidase-conjugated phosphotyrosine antibody supplied in the kit is incubated with the plate for one hour, then decanted. The plate is again washed with PBS six times.

In assay [6] the target is T2, EGF-R Kinase (recombinant enzyme) (Homo sapiens, UniProt P00533).
T2 construct: EGFR cDNA encoding amino acids 645 - 1186 preceded by Met-Ala-(His)6; made in house; host or cells: Sf9 insect cells, recombinant baculovirus vHcEGFR52
Description: Inhibition of Epidermal Growth Factor Receptor Kinase (EGF-R) using recombinant enzyme. To be noted: RR-SRC peptide substrate, (a) = average of two tests. In kind it is biochemical. The protocol:
Representative test compounds are evaluated in a standard pharmacological test procedure to measure their ability to inhibit the phosphorylation of the tyrosine residue of a peptide substrate catalyzed by the enzyme epidermal growth factor receptor kinase. […] The enzyme used in this assay is the His-tagged cytoplasmic domain of EGFR. […] Sf9 cells in 100 mm plates are infected at a multiplicity of infection of 10 pfu/cell and cells are harvested 48 h post infection. A cytoplasmic extract is prepared using 1% Triton X-100 and applied to Ni-NTA column. After washing the column with 20 mM imidazole, HcEGFR is eluted with 250 mM imidazole (in 50 mM Na2HPO4, pH 8.0, 300 mM NaCl). Fractions collected are dialyzed against 10 mM HEPES, pH 7.0, 50 mM NaCl, 10% glycerol, 1ug/mL antipain and leupeptin and 0.1 mM Pefabloc SC. The protein is frozen in dry ice/methanol and stored -70°C.
Test compounds are made into 10 mg/mL stock solutions in 100% dimethylsulfoxide (DMSO). Prior to experiment, stock solutions are diluted to 500 uM with 100% DMSO and then serially diluted to the desired concentration with HEPES buffer (30 mM HEPES pH 7.4).
For the enzyme reaction, 10 uL of each inhibitor (at various concentrations) are added to each well of a 96-well plate. To this is added 3 uL of enzyme (1:10 dilution in 10mM HEPES, pH 7.4 for final conc. of 1:120). This is allowed to sit for 10 min on ice and is followed by the addition of 5 ul peptide (80 uM final conc.), 10ul of 4X Buffer containing 50 mM HEPES (pH 7.4), 200 mM Na3VO4, 40mM MnCl2, 80 uM ATP, 0.25 uL ^33P-ATP (>2500 Ci/mmol; Amersham) and 12 uL H2O. The reaction is allowed to run for 90 min at room temperature and is followed by spotting the entire volume onto precut P81 filter papers. The filter discs are washed 2X with 0.5% phosphoric acid and radioactivity is measured using a liquid scintillation counter.
The % inhibition of the test compound is determined for at least three different concentrations and the IC50 value is evaluated from the dose response curve. […] CPM(control) is in units of counts per minute and is a number expressing the amount of radiolabled ATP (γ-^33P) incorporated into the RR-SRC peptide substrate by the enzyme after 90 minutes at room temperature in the absence of test compound as measured by liquid scintillation counting. The CPM values are corrected for the background counts produced by ATP in the absence of the enzymatic reaction.

Assay [7] has as its system Rat2 fibroblasts stably transformed with v-Src/Hu c-Src fusion gene. Briefly: Anchorage independent Src-transformed fibroblast proliferation test procedure. In kind it is cell-based. The following applies: Rattus norvegicus, the 3rd table c6, (a)-(d) = average of two to five runs, read-out: Src TF prolif IC50. From the text: Anchorage Independent Src-transformed Fibroblast Proliferation Test Procedure: Rat2 fibroblasts stably transformed with a plasmid containing a CMV promotor controlled v-Src/Hu c-Src fusion gene in which the catalytic domain of human c-Src is inserted in place of the v-Src catalytic domain in the v-Src gene are used for the measurement of src dependent suspension growth.

In brackets after ≈: the same amount, converted by molar mass.

T2 sequence (P00533 669-1210): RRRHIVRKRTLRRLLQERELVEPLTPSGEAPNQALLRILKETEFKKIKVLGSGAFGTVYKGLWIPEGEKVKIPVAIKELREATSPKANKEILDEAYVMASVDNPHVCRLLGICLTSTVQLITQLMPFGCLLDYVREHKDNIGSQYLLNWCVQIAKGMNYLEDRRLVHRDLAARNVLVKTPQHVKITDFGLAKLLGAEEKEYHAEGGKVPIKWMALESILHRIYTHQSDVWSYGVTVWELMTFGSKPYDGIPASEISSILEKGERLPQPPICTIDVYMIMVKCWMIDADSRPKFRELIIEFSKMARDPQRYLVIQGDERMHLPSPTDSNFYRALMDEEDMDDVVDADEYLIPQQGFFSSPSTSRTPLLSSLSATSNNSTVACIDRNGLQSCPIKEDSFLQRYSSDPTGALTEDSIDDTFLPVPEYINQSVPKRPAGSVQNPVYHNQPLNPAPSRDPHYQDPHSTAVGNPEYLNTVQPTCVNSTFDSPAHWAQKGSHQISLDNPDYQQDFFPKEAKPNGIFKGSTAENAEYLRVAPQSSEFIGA
T1 sequence (P12931 whole entry): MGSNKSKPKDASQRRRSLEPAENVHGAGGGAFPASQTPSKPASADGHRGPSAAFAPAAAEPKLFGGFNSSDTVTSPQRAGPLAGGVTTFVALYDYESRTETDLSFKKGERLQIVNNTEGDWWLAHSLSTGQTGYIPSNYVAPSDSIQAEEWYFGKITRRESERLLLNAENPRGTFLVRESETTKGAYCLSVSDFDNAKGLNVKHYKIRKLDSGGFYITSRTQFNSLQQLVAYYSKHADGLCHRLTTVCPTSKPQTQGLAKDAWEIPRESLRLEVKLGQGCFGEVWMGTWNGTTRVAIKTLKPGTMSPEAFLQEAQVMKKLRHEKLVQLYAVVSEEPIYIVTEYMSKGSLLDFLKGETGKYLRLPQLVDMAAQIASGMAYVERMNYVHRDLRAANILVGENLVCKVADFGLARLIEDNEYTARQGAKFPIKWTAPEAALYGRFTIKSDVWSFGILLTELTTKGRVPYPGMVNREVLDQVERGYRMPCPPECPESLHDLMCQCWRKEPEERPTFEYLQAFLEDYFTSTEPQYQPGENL

As usually defined, the IC50 is the concentration at which inhibition is half-maximal. In the case of `C=CC(=O)Nc1ccc2sc3c(Nc4cccc(Br)c4)c(C#N)cnc3c2c1` [Example 93, N-[4-(3-Bromoanilino)-3-cyano[1]benzothieno[3,2-b]pyridin-8-yl]acrylamide], the IC50 stood at 0.838 µg/mL (≈ 1.86 µM) in assay [1], 1.69 µg/mL (≈ 3.76 µM) in assay [2], 0.224 µg/mL (≈ 0.499 µM) in assay [3] and 1 µg/mL (≈ 2.23 µM) in assay [4].
Regarding `N#Cc1cnc2c(sc3ccc([N+](=O)[O-])cc32)c1Nc1ccc(Cl)cc1Cl` [Example 90, 4-(2,4-Dichloroanilino)-8-nitro[1]benzothieno[3,2-b]pyridine-3-carbonitrile], the inhibition at 1 µM in assay [5] (dose 1 µM, read-out: Src %Inh) turned out to be 0%. The IC50 stood at 0.41 µg/mL (≈ 0.987 µM) in assay [1], 0.46 µg/mL (≈ 1.11 µM) in assay [2], 0.59 µg/mL (≈ 1.42 µM) in assay [3] and 0.67 µg/mL (≈ 1.61 µM) in assay [4].
On to `COc1cc2cc3ncc(C#N)c(Nc4ccc(F)c(Cl)c4)c3cc2cc1OCCN1CCOCC1` [Example 212, 4-(3-Chloro-4-fluoroanilino)-8-methoxy-7-[2-(4-morpholinyl)ethoxy]benzo[g]quinoline-3-carbonitrile], for which the half-maximal inhibitory concentration (IC50) in assay [6] was 1890 nM; in assay [7] it was more than 10000 nM; in assay [1], 0.76 µg/mL (≈ 1.5 µM); in assay [3] it was 0.04 µg/mL (≈ 0.0789 µM); in assay [4], 0.36 µg/mL (≈ 0.71 µM).
`N#Cc1cnc2c(c1Nc1cccc(Br)c1)C=C1N=CN=C1C2` [Example 37, 8-(3-Bromo-phenylamino)imidazo[4,5-g]quinoline-7-carbonitrile]: the IC50 stood at 1.5 nM in assay [6]; 0.58 µg/mL (≈ 1.59 µM) in assay [1]; 3.48 µg/mL (≈ 9.56 µM) in assay [2]; 0.6 µg/mL (≈ 1.65 µM) in assay [3]; 3.72 µg/mL (≈ 10.2 µM) in assay [4].
The like results for `C=CC(=O)Nc1cccc2c1sc1c(Nc3cccc(Br)c3)c(C#N)cnc12` [Example 94, N-[4-(3-Bromoanilino)-3-cyano[1]benzothieno[3,2-b]pyridin-6-yl]acrylamide] were, in that order, 100 nM, 1.11 µg/mL (≈ 2.47 µM), 3.9 µg/mL (≈ 8.68 µM), 1.09 µg/mL (≈ 2.43 µM) and more than 5 µg/mL.
The like results for `N#Cc1cnc2cc3ccccc3cc2c1Nc1ccc(F)c(Cl)c1` [Example 4, 4-(3-Chloro-4-fluoroanilino)benzo[g]quinoline-3-carbonitrile] were, in that order, 5 nM, 0.332 µg/mL (≈ 0.955 µM), 1.65 µg/mL (≈ 4.74 µM), 1.01 µg/mL (≈ 2.9 µM) and 1.08 µg/mL (≈ 3.11 µM).
Regarding `N#Cc1cnc2c(sc3ccc(N)cc32)c1Nc1cccc(Br)c1` [Example 92, 8-Amino-4-(3-bromoanilino)-[1]benzothieno[3,2-b]pyridine-3-carbonitrile], the IC50 in assay [1], in assay [2], in assay [3] and in assay [4] was more than 5 µg/mL throughout.
For `N#Cc1cnc2c(sc3ccccc32)c1Nc1cccc(Br)c1` [Example 65, 4-(3-Bromophenylamino)benzo[4,5]thieno[3,2-b]pyridine-3-carbonitrile], the IC50 is 1000 nM in assay [6]; more than 5 µg/mL in assay [1]; more than 5 µg/mL in assay [2]; more than 5 µg/mL in assay [3]; more than 5 µg/mL in assay [4]. In assay [5] (dose 10 µM, read-out: Src %Inh), the inhibition at 10 µM was found to be 7%.
As to `N#Cc1cnc2c(oc3ccccc32)c1Nc1cccc(Br)c1` [Example 85, 4-(3-Bromophenylamino)benzo[4,5]furo[3,2-b]pyridine-3-carbonitrile], the 50% inhibitory concentration (IC50) in assay [6] was 1000 nM; in assay [1], more than 5 µg/mL; in assay [2], more than 5 µg/mL; in assay [3], more than 5 µg/mL; in assay [4], more than 5 µg/mL. For the same molecule, in assay [5] (dose 10 µM), the “Src %Inh” value stood at 44%. The inhibition at 10 µM in assay [5] (dose 10 µM, read-out: Src %Inh) was determined as 53%.
As to `N#Cc1cnc2cc3cc(O)c(O)cc3cc2c1Nc1ccc(Cl)cc1Cl` [Example 15, 4-(2,4-Dichloroanilino)-7,8-dihydroxybenzo[g]quinoline-3-carbonitrile], the inhibition at 0.01 µM in assay [5] (dose 0.01 µM, read-out: Src %Inh) was 10%. Besides, the concentration for half-maximal inhibition (IC50) is 0.58 µg/mL (≈ 1.46 µM) in assay [1], 0.85 µg/mL (≈ 2.15 µM) in assay [2], more than 5 µg/mL in assay [3] and 0.38 µg/mL (≈ 0.959 µM) in assay [4].
